Results from the supplement of paper PMC4932681.

Tests used:
Test in all cases: viability inhibition at highest dose (% inhibition); higher = more growth inhibition
[1] = test system: BT-474 Tam1; details: 4-OH-tamoxifen in medium 1 µM; 72 h
Experimental: (§1)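 Percent inhibition of viability (CellTiter-Glo, 72 h) at the highest tested concentration (D5), normalised to DMSO (0%) and 100 µM benzethonium chloride (100%). Resistant lines and the 'in 1µM tamoxifen' arms were tested in 1 µM 4-OH-tamoxifen.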

[2] = test system: BT-474 Tam2; details: 4-OH-tamoxifen in medium 1 µM; 72 h
Experimental: as §1

[3] = test system: BT-474; details: 72 h
Experimental: as §1

[4] = test system: MCF-7 Tam1; details: 4-OH-tamoxifen in medium 1 µM; 72 h
Experimental: as §1

[5] = test system: MCF-7; details: 72 h
Experimental: as §1

[6] = test system: T-47D Tam1; details: 4-OH-tamoxifen in medium 1 µM; 72 h
Experimental: as §1

[7] = test system: T-47D Tam2; details: 4-OH-tamoxifen in medium 1 µM; 72 h
Experimental: as §1

[8] = test system: T-47D; details: 72 h
Experimental: as §1

[9] = test system: ZR-75-1 Tam1; details: 4-OH-tamoxifen in medium 1 µM; 72 h
Experimental: as §1

[10] = test system: ZR-75-1 Tam2; details: 4-OH-tamoxifen in medium 1 µM; 72 h
Experimental: as §1

[11] = test system: ZR-75-1; details: 72 h
Experimental: as §1

Row | Compound | viability inhibition at highest dose [1] | viability inhibition at highest dose [2] | viability inhibition at highest dose ([3]; 4-OH-tamoxifen in medium 0 µM) | viability inhibition at highest dose ([3]; 4-OH-tamoxifen in medium 1 µM) | viability inhibition at highest dose [4] | viability inhibition at highest dose ([5]; 4-OH-tamoxifen in medium 0 µM) | viability inhibition at highest dose ([5]; 4-OH-tamoxifen in medium 1 µM) | viability inhibition at highest dose [6] | viability inhibition at highest dose [7] | viability inhibition at highest dose ([8]; 4-OH-tamoxifen in medium 0 µM) | viability inhibition at highest dose ([8]; 4-OH-tamoxifen in medium 1 µM) | viability inhibition at highest dose [9] | viability inhibition at highest dose [10] | viability inhibition at highest dose ([11]; 4-OH-tamoxifen in medium 0 µM) | viability inhibition at highest dose ([11]; 4-OH-tamoxifen in medium 1 µM)
1 | Cc1c(C(=O)Nc2ccc(N3C[C@@H](C)O[C@@H](C)C3)nc2)cccc1-c1ccc(OC(F)(F)F)cc1 [Erismodegib (NVP-LDE225)] (drug 10000 nM) | 15.9 | 19 | 18 | 41.1 | 15.1 | 23.2 | 14.6 | 4.09 | 19.2 | 19.8 | 8.8 | 13.1 | 7.11 | -0.79 | 17.1
2 | C#Cc1cccc(Nc2ncnc3cc(OCCOC)c(OCCOC)cc23)c1 [Erlotinib] (drug 10000 nM) | 94.4 | 87.1 | 43 | 94.5 | 12.5 | 4.3 | 0.353 | 39.8 | 40 | 20.8 | 9 | 14.6 | 10.9 | 3.58 | 12.2
3 | C[C@]12CC[C@@H]3c4ccc(OC(=O)N(CCCl)CCCl)cc4CC[C@H]3[C@@H]1CC[C@@H]2O [Estramustine] (drug 990000 nM) | -8.94 | 1.08 | -9.96 | -0.556 | -4.18 | -17 | -12.1 | -1.27 | 4.35 | -27.1 | -3.37 | 0.469 | -3.72 | -4.2 | 3.75
4 | COc1cc([C@@H]2c3cc4c(cc3[C@@H](O[C@@H]3O[C@@H]5CO[C@@H](C)O[C@H]5[C@H](O)[C@H]3O)[C@H]3COC(=O)[C@H]23)OCO4)cc(OC)c1O [Etoposide] (drug 10000 nM) | 14 | -7.49 | -4.44 | 27.7 | -2.1 | 8.22 | 12.7 | 42.1 | 7.25 | 46.7 | 15.7 | 23 | 15.5 | 32.5 | 19.4
5 | CO[C@H]1C[C@@H]2CC[C@@H](C)[C@@](O)(O2)C(=O)C(=O)N2CCCC[C@H]2C(=O)O[C@H]([C@H](C)C[C@@H]2CC[C@@H](OCCO)[C@H](OC)C2)CC(=O)[C@H](C)/C=C(\C)[C@@H](O)[C@@H](OC)C(=O)[C@H](C)C[C@H](C)/C=C/C=C/C=C/1C [Everolimus] (drug 100 nM) | 22.1 | 15.8 | 15.8 | 11.4 | 15.6 | 47.5 | 34.3 | 28.2 | 25.9 | 29.1 | 24 | 34.2 | 38.4 | 35.9 | 32.7
6 | C=C1C[C@@H]2[C@H](CC[C@]3(C)C(=O)CC[C@@H]23)[C@@]2(C)C=CC(=O)C=C12 [Exemestane] (drug 10000 nM) | 0.0289 | -0.955 | 0.814 | 0.09 | 3.68 | 19.4 | 7.88 | 2.32 | 19.2 | -12.5 | -2.8 | 4.25 | -3.66 | -15.1 | -6.66
7 | O=S(=O)(c1cccc2cnccc12)N1CCCNCC1 [Fasudil  (HA-1077)] (drug 50000 nM) | -5.55 | -12.9 | -7 | -17.4 | 7.1 | 21 | -0.98 | 2.59 | 20.1 | -20.9 | -12.4 | 3.21 | -8.22 | -7.56 | -6.81
8 | CC(C)(C)NC(=O)[C@H]1CC[C@H]2[C@@H]3CC[C@H]4NC(=O)C=C[C@]4(C)[C@H]3CC[C@]12C [Finasteride] (drug 10000 nM) | 27.2 | 19.1 | -6.68 | -0.99 | 3.61 | -0.974 | 6.29 | 14.8 | 18 | -5.04 | -8.61 | -2.42 | 4.5 | -8.28 | 7.55
9 | CCCCCCCCc1ccc(CCC(N)(CO)CO)cc1 [Fingolimod] (drug 10000 nM) | 96.8 | 95.2 | 94.4 | 96.6 | 11.9 | 94.6 | 71.4 | 62.4 | 59.1 | 69.4 | 91.9 | 45.3 | 55.5 | 40.8 | 52.5
10 | O=c1[nH]c(=O)n([C@H]2C[C@H](O)[C@@H](CO)O2)cc1F [Floxuridine] (drug 10000 nM) | 12.3 | 3.04 | 30.5 | 27.9 | 5.39 | 21 | 1.8 | 59 | 21.3 | 22.3 | 7.89 | 8.75 | 18.5 | 22.7 | 12.6
11 | Nc1nc(F)nc2c1ncn2[C@@H]1O[C@H](CO)[C@@H](O)[C@@H]1O [Fludarabine] (drug 10000 nM) | 2.46 | 4.57 | -6.6 | -12.5 | -4.15 | -24.7 | 10 | 20.4 | -0.0717 | -8 | -12.2 | -3.09 | -3.77 | -0.221 | -4.24
12 | O=c1[nH]cc(F)c(=O)[nH]1 [Fluorouracil] (drug 10000 nM) | 1.71 | 0.595 | -7.65 | -2.76 | 8.84 | 35.1 | 4.26 | 5.54 | 9.76 | 13.4 | 10.1 | 8.57 | 17.1 | 16.4 | 15.2
13 | CC(C)C(=O)Nc1ccc([N+](=O)[O-])c(C(F)(F)F)c1 [Flutamide] (drug 10000 nM) | 6.08 | 6.26 | -10.2 | -11.4 | -3.99 | -18 | 15.9 | 6.02 | 11.2 | 0.571 | -1.73 | -0.0944 | -5.1 | -10.7 | -3.17
14 | COc1cc2c(Oc3ccc(NC(=O)C4(C(=O)Nc5ccc(F)cc5)CC4)cc3F)ccnc2cc1OCCCN1CCOCC1 [Foretinib (Foretinib)] (drug 1000 nM) | 31.4 | 10.3 | 1.4 | 44.6 | 26.2 | 16.9 | 20.7 | 19 | 28.5 | 20.6 | 17.8 | 9.43 | 19.5 | 0.383 | 13.7
15 | C[C@]12CC[C@@H]3c4ccc(O)cc4C[C@@H](CCCCCCCCC[S+]([O-])CCCC(F)(F)C(F)(F)F)[C@H]3[C@@H]1CC[C@@H]2O (stereo not given in full) [Fulvestrant] (drug 1000 nM) | -6.25 | 4.97 | -5.27 | -0.276 | -0.218 | 31.4 | 17.5 | 12.9 | 8.69 | 1.98 | -1.62 | -1.86 | -6.33 | -18.5 | -4.88
16 | Cc1c(CN2CCN(C(=O)[C@H](C)O)CC2)sc2c(N3CCOCC3)nc(-c3cnc(N)nc3)nc12 [GDC-0980] (drug 10000 nM) | 87.4 | 84.3 | 60.1 | 86.3 | 52.1 | 74 | 73.4 | 67.1 | 64 | 73.8 | 72.1 | 66.6 | 72.1 | 64.4 | 56.3
17 | C[C@@H]1C=C2C(=O)O[C@@H]3CC[C@H](C1)[C@]23O [Galiellalactone] (drug 50000 nM) | 50.9 | 3.76 | -0.142 | 54.5 | -3.64 | 72.3 | 14.4 | 41.4 | 40.6 | 59.8 | 54.7 | 4.34 | 1.46 | -10.5 | -3.25
18 | COc1cc2ncnc(Nc3ccc(F)c(Cl)c3)c2cc1OCCCN1CCOCC1 [Gefitinib] (drug 10000 nM) | 97.7 | 96.8 | 86.4 | 96.6 | 14.2 | 28 | 35.6 | 34.2 | 47.3 | 12.1 | 8.3 | 22.2 | 18.6 | 13.1 | 27.5
19 | COC1=C2C[C@@H](C)C[C@H](OC)[C@H](O)[C@@H](C)/C=C(\C)[C@H](OC(N)=O)[C@@H](OC)/C=C\C=C(/C)C(=O)NC(=CC1=O)C2=O [Geldanamycin] (drug 10000 nM) | 83.6 | 82.1 | 67.6 | 69.7 | 58.9 | 85.8 | 78.5 | 82.4 | 67.1 | 73.3 | 74.9 | 69 | 66.7 | 62 | 80.5
20 | Nc1ccn([C@@H]2O[C@H](CO)[C@@H](O)C2(F)F)c(=O)n1 [Gemcitabine] (drug 1000 nM) | 1.24 | -10.3 | -11.7 | -4.83 | -2.89 | 25.8 | 4.61 | 25.9 | 21.5 | 32.3 | 7.44 | 9.23 | 11.2 | 16.9 | 19.4
21 | CC(C)C[C@H](NC(=O)[C@@H](COC(C)(C)C)NC(=O)[C@H](Cc1ccc(O)cc1)NC(=O)[C@H](CO)NC(=O)[C@H](Cc1c[nH]c2ccccc12)NC(=O)[C@H](Cc1cnc[nH]1)NC(=O)[C@@H]1CCC(=O)N1)C(=O)N[C@@H](CCCNC(=N)N)C(=O)N1CCC[C@H]1C(=O)NNC(N)=O [Goserelin acetate] (drug 10000 nM) | 4.09 | 3.49 | -9.97 | -17.3 | -8.86 | -35 | 2.51 | 3.41 | 13 | -9.98 | -8.33 | 3.63 | -3.44 | -9.52 | -3.92
22 | NC(=O)NO [Hydroxyurea] (drug 100000 nM) | 6.52 | 5.16 | -6.12 | 14.5 | 1.25 | -13.2 | 12.6 | -2.99 | 1.81 | -10.4 | 7.44 | 2.07 | -8.32 | -5.61 | 3.11
23 | CC(C)n1nc(-c2ccc3oc(N)nc3c2)c2c(N)ncnc21 [INK128] (drug 1000 nM) | 72.6 | 44.1 | 36.7 | 62.9 | 35.9 | 70.3 | 52.4 | 58.8 | 36.7 | 66.7 | 46.4 | 52.7 | 66 | 61.2 | 51.9
24 | CC(=O)[C@]1(O)Cc2c(O)c3c(c(O)c2[C@@H](O[C@H]2C[C@H](N)[C@H](O)[C@H](C)O2)C1)C(=O)c1ccccc1C3=O [Idarubicin] (drug 1000 nM) | 87.9 | 65 | 77.2 | 96.2 | 39.5 | 80.6 | 66.6 | 83.7 | 45.9 | 68.9 | 59.5 | 55.2 | 62.4 | 61.7 | 52.2
25 | O=P(O)(NCCCl)NCCCl [Ifosfamide mustard] (drug 10000 nM) | -11.5 | -5.04 | -4.47 | -15.1 | -11 | -19.2 | -14.2 | -3.5 | -1.32 | -13.8 | -10.1 | 1.78 | 0.309 | -10.9 | -4.6
26 | O=P1(NCCCl)OCCCN1CCCl (stereo not given) [Ifosfamide] (drug 10000 nM) | 2.59 | -0.857 | -8.04 | 1.1 | -4.9 | -17.9 | 17.3 | -0.131 | 1.35 | -16.4 | -8.32 | 2.45 | -4.83 | -8.49 | -7.06
